Measured values from PubChem BioAssay (NCI).
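Cultured in 96-well plates, cells were exposed to test compound for 48 hours across five concentrations. GI50: concentration for 50% inhibition of growth. TGI: total growth inhibition.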

Legend:
Assay in all cases: NCI-60 cell line screen, 48 h
SF-539 CNS = tested on: SF-539 CNS
SK-MEL-28 melanoma = tested on: SK-MEL-28 melanoma
OVCAR-8 ovarian = tested on: OVCAR-8 ovarian
MOLT-4 leukemia = tested on: MOLT-4 leukemia
RXF 393 renal = tested on: RXF 393 renal
SF-295 CNS = tested on: SF-295 CNS
A549 NSCLC = tested on: A549 NSCLC
HOP-62 NSCLC = tested on: HOP-62 NSCLC
SK-MEL-2 melanoma = tested on: SK-MEL-2 melanoma
SF-268 CNS = tested on: SF-268 CNS
SNB-19 CNS = tested on: SNB-19 CNS
HCT-116 colon = tested on: HCT-116 colon

| SMILES | TGI (SF-539 CNS) [µM] | TGI (SK-MEL-28 melanoma) [µM] | TGI (OVCAR-8 ovarian) [µM] | GI50 (MOLT-4 leukemia) [µM] | TGI (MOLT-4 leukemia) [µM] | TGI (RXF 393 renal) [µM] | TGI (SF-295 CNS) [µM] | TGI (A549 NSCLC) [µM] | TGI (HOP-62 NSCLC) [µM] | TGI (SK-MEL-2 melanoma) [µM] | TGI (SF-268 CNS) [µM] | TGI (SNB-19 CNS) [µM] | TGI (HCT-116 colon) [µM] | GI50 (SK-MEL-28 melanoma) [µM] | GI50 (RXF 393 renal) [µM] | GI50 (A549 NSCLC) [µM] | GI50 (HOP-62 NSCLC) [µM] | GI50 (SK-MEL-2 melanoma) [µM] | GI50 (SF-268 CNS) [µM] |
| --- | --- | --- | --- | --- | --- | --- | --- | --- | --- | --- | --- | --- | --- | --- | --- | --- | --- | --- | --- |
| N#C[C@H](OC1OC(COC2OC(CO)C(O)C(O)C2O)C(O)C(O)C1O)c1ccccc1 (stereo not given in full) | > 250 | > 250 | > 250 | > 141 | > 141 | > 250 | > 250 | > 250 | > 250 | > 250 | > 250 | > 250 | > 250 |  |  |  |  |  |  |
| O=C(Nc1nc2ccc([N+](=O)[O-])cc2s1)C(=O)C(C(=O)c1ccccc1F)C1OC(=O)c2ccccc21 (stereo not given) | 48.3 | > 100 | > 100 |  | > 100 |  | > 100 | > 100 | > 100 | > 100 | > 100 | > 100 | > 100 |  |  |  |  |  |  |
| CCCNC(=O)C(C)C1CCC2(C)C=CC(=O)C(C)=C2C1O (stereo not given) | > 100 | > 100 | > 100 |  | > 100 | > 100 | > 100 | > 100 | > 100 | > 100 | > 100 | > 100 | > 100 |  |  |  |  |  |  |
| CCCc1c(-c2ccccc2)[nH]c2ccccc2c1=O | > 100 | > 100 |  |  | > 100 | > 100 | > 100 |  | > 100 | 96.7 | > 100 | > 100 | 72.8 |  |  |  |  |  |  |
| CCN(CC)c1ccc2cc(C(=O)Nc3ccc4[nH]c(C(=O)N5C[C@@H](CCl)c6c5cc(OC(=O)Nc5ccccc5)c5[nH]cc(C)c65)cc4c3)oc2c1 | 796 | > 1000 | > 1000 | 294 | > 1000 |  |  | > 1000 |  | > 1000 | 742 | 758 | 378 | 401 | 202 | 147 | 104 | > 1000 | 133 |
| O=C1C(Cl)=C(Nc2ccc(S(=O)(=O)O)cc2)C(=O)c2ccccc21 | 57.9 | 83.2 | 90.6 |  | > 100 | 37.6 | 82.5 | 58.7 | > 100 | 59.6 | > 100 | > 100 | > 100 |  |  |  |  |  |  |
| O=c1ssc(=Nc2ccccc2)n1-c1ccccc1 | > 100 | > 100 | 32.7 |  | > 100 |  | > 100 | > 100 | 46.5 | 53.9 | 37.1 | > 100 |  |  |  |  |  |  |  |
| C=CC1(NC(=O)c2ccccc2)CCC(C(C)(C)C)CC1 (stereo not given) | > 100 | > 100 | > 100 |  | 30.3 | > 85.8 | 74 | > 100 | > 90.5 | 56.6 | > 100 | > 100 | 55.1 |  |  |  |  |  |  |
| Nc1ccn(C2C=C(CO)C(O)C2O)c(=O)c1 (stereo not given) | > 625 |  | > 625 |  |  |  | > 625 | > 625 | > 625 | > 625 | > 625 | > 625 | > 625 |  |  |  |  |  |  |
| COc1nc(=O)n(COC(CO)CN2C(=O)c3ccccc3C2=O)cc1Cc1cccc(OCc2ccccc2)c1 (stereo not given) | 34.2 | 36.2 | > 100 |  | 49.4 |  | 48.9 | 75.8 |  | 31.3 |  | > 100 | > 100 |  |  |  |  |  |  |
| CN(C)CCCN1c2ccccc2Sc2ccc3ccccc3c21 | 30.9 | 4.26 | 27.1 |  | 10.1 | 3.92 | 26.3 | 26.6 | 24.8 | 13.1 | 23.4 | 28.8 | 22.9 |  |  |  |  |  |  |
| OCCNCCN1CCN(CCCN2c3ccccc3Sc3ccc(C(F)(F)F)cc32)CC1 | 34.5 | 39.5 | 31.9 |  | > 100 | 47.5 | 34.9 | 48.6 | 38.1 | 37.5 | 44 | 49.2 | 31.7 |  |  |  |  |  |  |
| O=C(O)c1cc2c(ncc3c(=O)n(-c4ccccc4)[nH]c32)s1 | > 100 | > 100 | > 100 |  | > 100 | > 100 |  | > 100 | > 100 | > 100 | > 100 |  | > 100 |  |  |  |  |  |  |
| CC(=O)Oc1cc2c(cc1OC(C)=O)OCC(c1ccccc1)C2 (stereo not given) | 48.7 | 53.1 | 73.5 |  | 26.1 | 30 | 49.8 | 39.9 | 54.3 | 54.7 | 52.2 | 48.5 | 57.4 |  |  |  |  |  |  |
| Cc1ccc(C2OC(COCc3ccc(Cl)cc3)C(OCc3ccc(Cl)cc3)C2O)cc1 (stereo not given) | 36.2 | > 100 | 36.9 |  | > 100 | 10.8 | 32 | 30.1 |  | 31 |  | 56.7 | > 100 |  |  |  |  |  |  |
| O=C1OC2(CC1C1(O)C3CC4CC(C3)CC1C4)C1CC3CC(C1)CC2C3 (stereo not given) | > 100 | > 100 | > 100 |  | > 100 | > 100 | 73.1 | > 100 |  | > 100 | > 100 |  | > 100 |  |  |  |  |  |  |
